Experimental findings from a melting point compilation (Tetko et al.; mined from patent text by program, amines drawn as free bases though some values may be those of a salt) are described below.

The compound `CC(C)(O)C(=O)c1ccc(OCC(=O)O)cc1` returned a melting point of 131 to 134 °C. Compound `CC#CCOc1ccc(S(=O)(=O)N(C)C(C(=O)NO)C(C)(C)SCCN2CCCC2)cc1` (centres undefined) came in with a melting point of 55 to 57 °C. As for `Cc1ccc2nc(Cl)nc(NN)c2c1`, the melting point was greater than 280 °C. The compound `CCCCCNC(=O)c1cn2nc(N3CCN(C(=O)c4ccccc4C(F)(F)F)CC3)ccc2n1` yielded a melting point of 179 to 180 °C.

In the case of `CC(=O)NC1CCC2=C(CC1)C(=O)C(=CC(=O)O)C=C2` (centres undefined), the melting point was 240 to 243 °C. With `CC(=O)SCCNc1nc(-c2ccccc2)c2cc(Cl)ccc2n1`, the melting point is 129 °C.

The compound `OC(=S)c1cccnc1` came in with a melting point of 84 to 86 °C. Compound `CCOc1ccc(-c2[nH]c3ccc(OCc4ccccc4)cc3c2C)cc1` had a melting point of 143 to 145 °C.

In the case of `Cc1cc(-c2ccc(-c3ccc(F)cc3)cc2)n[nH]c1=O`, the melting point lay within 247 to 248 °C. Consider `NCCCNc1n[nH]c(=O)c2ccccc12`, for which the melting point lay in the range of 147 to 148 °C.

With `Cc1ccc2c(c1)-n1cc(C(=O)O)nc1CO2`, the melting point was in the range of 281 to 285 °C. Regarding `Cc1[nH]c(=O)c(C#N)cc1C(=O)c1ccncc1`, the melting point was greater than 305 °C. The compound `Nc1ncc(-c2ccc(F)cc2F)nc1C(=O)Nc1cccnc1` had a melting point of 232 to 234 °C. With `NC(=O)c1cc2c(cc1OCC1CCCCC1)OCCC[C@@H]2N`, the melting point was 145 to 146 °C. Consider `COC(=O)C(OC)(OC)c1ccccc1Br`, for which the melting point worked out at 55 °C.

`COc1ccc2c(c1)OCC(c1ccc(C(F)(F)F)cc1)C2c1ccc(OCCN2CCCC2)cc1` (centres undefined) yielded a melting point of 119 to 120 °C.

`Cc1ccc(F)cc1C(=O)Nc1ccc(C(=O)N2Cc3cccn3-c3ncccc32)cn1` registered a melting point of 226 to 234 °C. In the case of `CC(=O)OCC(C)(C)c1ccc(S(N)(=O)=O)cc1`, the melting point was 156 to 158 °C. Take `COC(=O)C1=C(C)NC(C)=C(C(=O)OC(C)CCl)C1c1cccc([N+](=O)[O-])c1` (centres undefined): the melting point lay in the range of 95 to 102 °C. Compound `CC(C)n1nc(-c2cc(Cl)c(N)nc2-c2ccccc2)ccc1=O` displayed a melting point of 207 to 208 °C. Take `NS(=O)(=O)c1cc2c(cc1Cl)C(=O)N(Cc1cccnc1)C2=O`: the melting point was in the range of 210 to 212 °C. For `Cc1ccc(-c2[nH]c3ccccc3c(=O)c2Cc2ccncc2)cc1` the value was 264 to 266 °C; for `Nc1cc(OCc2ccccc2)ccc1NC(=O)c1ccc(OCc2ccccc2)c(C23CC4CC(CC(C4)C2)C3)c1`, 166 to 170 °C. For `Brc1c(OCc2ccccc2)cccc1C1OCCCO1`, the melting point was in the range of 73 to 74 °C.

Turning to `O=C1C(c2ccc(O)cc2)=C(Br)c2ccc(O)cc21`, the melting point was 240 °C. Under `O=c1nc(NCCCn2ccnc2)n2c3c1cnn3C(c1cccc(F)c1)=CC2` stands 256 to 258 °C; under `CC1CCN(c2ccc(N)cc2C(=O)c2ccc(Cl)cc2)CC1`, 89 °C; under `CC(=O)NC[C@H]1CN(c2ccc(-n3nccc3-c3cccc(Br)n3)c(F)c2)C(=O)O1`, 90.5 to 92.3 °C. The compound `O=C(NCC(=O)N1c2ccccc2N(Cc2ccccc2)C(=O)[C@H]2CCC[C@H]21)c1ccc([N+](=O)[O-])cc1` (relative stereo) registered a melting point of 231 to 233 °C.

Take `CC1=NN=C(c2ccc([N+](=O)[O-])cc2)c2cc(Cl)c(Cl)cc2C1`: the melting point fell in the range of 231 to 233 °C.

The compound `CCCCCCCCCCCCCCCCCCOc1ccc(OCc2ccccc2)c(C(=O)OC)c1` had a melting point of 52 to 54 °C. `CC1CCc2nc(Cl)nc(-c3ccc(F)cc3)c2C1` (centres undefined) returned a melting point of 106 to 108 °C. `CCc1nc2cc(NC)c(Cl)cc2n1-c1ccc(CCNC(=O)NS(=O)(=O)c2ccc(C)cc2)cc1` yielded a melting point of 95 to 100 °C. For `Nc1[nH]nc(-c2ccc(F)cc2)c1-c1ccncc1` the value was greater than 250 °C; for `COCCOC(=O)c1cc(C(=O)NOC)c(O)c2ncc(Cc3ccc(F)cc3)cc12`, 166 to 168 °C; for `CCc1ccc(C2C(C#N)=C(CC(C)C)NC(C)=C2C(=O)OC(C)(C)C)cc1` (centres undefined), 165 to 166 °C. Turning to `COC(=O)c1ccc2scc(Cl)c2n1`, the melting point lay within 126 to 127 °C. Consider `O=C1NCCN(N=Cc2ccco2)C1=O`, for which the melting point lay in the range of 193 to 197 °C. The compound `CCCCCP(=O)(O)CCCN` came in with a melting point of 232 to 236 °C. On to `N#Cc1cnc2cc(/C=C/CCCCN3CCOCC3)ccc2c1Nc1ccc(Cl)cc1Cl`, for which the melting point is 139 to 140 °C. `CN(C)C1CCc2[nH]c3cccc(Cl)c3c2C1` (centres undefined) displayed a melting point of 212 to 214 °C. Compound `COC(=O)c1ccc2c(c1)C=CC(=C(Cl)Cl)CO2` registered a melting point of 119 to 121 °C. Under `O=[N+]([O-])c1cccc(Sc2ccc(-c3ccc(Br)cc3)s2)c1` stands 120 to 122 °C; under `COc1ccc(CNc2ncnc3c2ncn3C2OC(Cn3cc(C)nn3)C(O)C2O)cc1` (centres undefined), 183 °C; under `O=C(CNC(=O)OCc1ccccc1)Nc1ccccc1C(=O)c1cccs1`, 115 to 116 °C. On to `Nc1nc(Cn2ncc3cc(C(=O)NC[C@H](NS(=O)(=O)c4cccc5ccccc45)C(=O)O)ccc32)cc(=O)[nH]1`, for which the melting point fell in the range of 94 to 95 °C. As for `CCSc1cc2ccccc2c(=O)n1Cc1ccccc1`, the melting point lay in the range of 79 to 80 °C.

The compound `O=C(O)c1ccc2nc(/C=C/c3ccccc3)cc(=O)n2c1` gave a melting point of 293 to 295 °C. As for `COC(=O)c1ccc(O)c(I)c1`, the melting point lay within 145 to 146 °C. Turning to `CC(C)c1ccc(S(=O)(=O)NC(=O)Cc2ccc3c(c2)OCO3)cc1`, the melting point lay in the range of 262 to 263 °C. `COc1ccc(Cl)c(CC#N)c1` had a melting point of 62 to 65 °C. In turn, `O=C1CN(c2cccc(Cl)c2)C(=O)N1S(=O)(=O)c1ccc2ccccc2c1` displayed a melting point of 194 to 198 °C. Compound `COC1=C(OC)C(=O)C(CCCCCCCCCOC(C)=O)=C(C)C1=O` displayed a melting point of 30 °C. With `O=C(O)c1ccc2c(c1)CCC(CCN1CCC(c3ccccc3)CC1)C2=O` (centres undefined), the melting point lay in the range of 118 to 120 °C. For `COc1cc(-c2ccc(O)c(C34CC5CC(CC(C5)C3)C4)c2)cc(C=C2SC(N3CCOCC3)=NC2=O)c1O` the value was 310 to 312 °C. Compound `CCOC(=O)C1(C(=O)OCC)CC(c2ccc(Cl)cc2N)=CN1C(C)=O` had a melting point of 152 to 153 °C. For `Cc1c(C(=O)N[C@H](C)[C@](O)(Cn2cncn2)c2ccc(F)cc2F)cnn1-c1ccc(Cl)cc1`, the melting point was 154 to 155 °C.

`CCc1cccc2c(/C=C(\C)C(=O)O)cc(OC)c(OC(C)=O)c12`: the melting point fell in the range of 148 to 150 °C. `CCNCC(=O)Nc1cccc2c1C(=O)c1c-2n[nH]c1-c1ccc(OC)cc1`: the melting point was found to be 250 °C. As for `O=C(O)c1ccc(CCOCCCCCCBr)s1`, the melting point was 60 to 61 °C. Under `COc1cccc(-c2cc(NC(=O)CC(=O)C(F)(F)F)[nH]n2)c1` stands 107 to 110 °C; under `CC(C)Cn1c(C(=O)O)c(-c2cccs2)c2cc(OCc3ccccc3)ccc2c1=O`, 171 to 172 °C; under `COC(=O)[C@]1(O)Cc2c(OC)ccc(OC)c2C2(C1)SCCS2`, 115 to 117 °C. For `COc1ccc(CNC(=O)c2sc3ccccc3c2Br)cc1` the value was 123 to 124 °C; for `OC(CNc1ccccc1)c1cc(C(F)(F)F)nc2c(C(F)(F)F)cccc12` (centres undefined), 121 to 122 °C. Consider `COCCOc1ccc(/C=C/C(=O)O)c(Oc2ncc(Cl)cc2Cl)c1`, for which the melting point fell in the range of 182 to 184 °C. As for `Oc1cncc2ccsc12`, the melting point turned out to be 180 °C. Turning to `CS(=O)(=O)c1ccc(-c2sc(-c3ccccc3Cl)nc2-c2ccccc2F)cc1`, the melting point fell in the range of 163 to 166 °C.

`COC(=O)c1cc(N)c(N2CCCCC2)c(S(C)(=O)=O)c1` showed a melting point of 178 to 179 °C. In the case of `O=C1C(O)=C(C2CCCCC2)C(=O)c2ccccc21`, the melting point lay within 128 to 130 °C. Under `CCCCSC(=O)NC(=O)C(c1ccccc1)c1ccccc1` stands 99 °C; under `C#CCCn1nnc2cc3c(=O)n(C(C)Cn4ncnn4)nnc3cc2c1=O` (centres undefined), 185 to 188 °C. The compound `COC(=O)c1ncnn1Cc1ccc([N+](=O)[O-])cc1` registered a melting point of 126 to 130 °C. Regarding `CCOC(=O)C1(C(=O)OCC)CCC2(NCCc3cc(OC)c(OC)cc32)C(C2c3cc(OC)c(OC)cc3CCN2C(C)=O)C1` (centres undefined), the melting point is 146 to 149 °C.

`O=C(c1ccc2ncccc2c1)c1ccc2nc(Cl)nc(-c3cccc(Cl)c3)c2c1` gave a melting point of 170 °C. `CC(C)[C@@H]1C[C@@H]([C@H](C[C@H](C(=O)N2C(=O)OC[C@@H]2Cc2ccccc2)C(C)C)N=[N+]=[N-])OC1=O`: the melting point was in the range of 102 to 103 °C. In the case of `Oc1ccc2c(c1)SCCc1c-2n(CCCCCN2CCCC2)c2ccccc12`, the melting point came out at 158 °C. For `CCCc1c(C(=O)N(C)Cc2ccc3c(Br)c(OCC#N)ccc3c2)cnn1-c1ccccc1`, the melting point was in the range of 76 to 80 °C. Regarding `CC(C)Nc1nc2c(F)c(Cl)c(Cl)cc2[nH]1`, the melting point was 212 to 215 °C. In turn, `COCc1ncn2c1CN(C)C(=O)c1c(Cl)cccc1-2` displayed a melting point of 143 to 144 °C. In the case of `CCC[C@H]1CC[C@H](c2ncc(C#N)cn2)CC1`, the melting point came to 74 °C. As to `COC12CCCCC1CC(c1ccccc1)=NN2S(=O)(=O)c1ccc(C)cc1` (centres undefined), the melting point was in the range of 112 to 114 °C. Under `CC(=NOCc1cc(C(F)(F)F)ccc1C(F)(F)F)c1cc(Cl)ccc1NS(=O)(=O)C(F)(F)F` stands 73 to 75 °C; under `CCC(C)(C)c1ccc(Oc2cccc(C#N)c2C#N)c(C(C)(C)CC)c1`, 143 to 144 °C; under `OCc1ccccc1NC1CCN(Cc2ccccc2)CC1`, 164 to 168 °C. Under `O=[N+]([O-])c1ccc(Cl)cc1OCC=Cc1ccccc1` stands 74.5 to 75.5 °C; under `Cn1nc(-c2ccc(Br)cc2)c2ccccc2c1=O`, 168 to 170 °C; under `CC=CC(=O)Oc1cc(C)nc(C(Cl)(Cl)Cl)n1`, 55 °C. Consider `Cc1ccc(S(=O)(=O)OCCN(c2ccc(OC(F)(F)F)cc2)S(=O)(=O)c2ccc(C)cc2)cc1`, for which the melting point stood at 88 °C.
